{
  "source": "paper PMC8558239",
  "about": "“Interaction Between Florfenicol and Doxycycline Involving Cytochrome P450 3A in Goats (Capra hricus)” (Frontiers in Veterinary Science, 2021)",
  "key": {"CYP3A24": {"system": "CYP3A24", "assay": "Incubation of recombinant CYP3A24 with FF and DOX (FFA production)", "type": "in vitro ADME, goat", "settings": "FF incubated with CYP3A24"}, "CYP3A24 R440A": {"system": "CYP3A24 R440A", "settings": "mutant R440A"}, "CYP3A24 R372A": {"system": "CYP3A24 R372A", "settings": "mutant R372A"}, "CYP3A24 gene": {"system": "CYP3A24 gene", "assay": "Gene expression of CYP3A24 in goat liver (qPCR)", "type": "in vivo, goats", "protocol": "Throughout the experiment, all goats had ad libitum access to feed and water without antibiotics. The goats were divided into three groups, namely the control group (6 animals), the single group (24 animals), and the combined group (24 animals). The control group was fed without medication. In the single group, FF (Zhonglongshenli Animal Pharmaceutical Co., Ltd. Hefei, China, specification: 10 mL: 1 g) was injected into the neck muscles at 48 h intervals, twice in total. In the combined group, FF was injected into the neck muscles at 48 h intervals, twice in total, and DOX-hyclate (Zhonglongshenli Animal Pharmaceutical Co., Ltd. Hefei, China, specification: 10 mL: 1 g) was injected into the neck muscles, once a day for 3 days. The volume of the treatment solution was calculated individually for each goat to provide a dose equivalent to 20 mg FF/kg bw and 10 mg DOX/kg bw. […]\nReal-time quantitative polymerase chain reaction (qPCR) was used to detect the expression of CYP3A24 in treated goats. […] The concentration and purity of RNA was detected by Q3000 (Thermo, USA). […] The data were analyzed by the 2^ΔΔCt method."}, "[1]": {"assay": "Tissue residue depletion in goats (LC-MS/MS)", "type": "in vivo, goats (Capra hircus)", "settings": "both sexes, Boaer-cross, intramuscular, i.m., mean ± SD, 4 goats; for concentration at 0.5 days: 0.5 days after last dose; for concentration at 1 day: 1 day after last dose", "protocol": "In this study, a total of 54 Boaer-cross goats (Capra hircus) of both sexes, about 8 months old, were selected, weighing 28–36 kg. During the 1st week of acclimatization, all animals were raised in the usual way, with free access to feed and water. The experiment was conducted in accordance with the Guidelines for the Care and Use of Laboratory Animals issued by HZAU and approved by the Ethics Committee of Veterinary College of HZAU.\nThroughout the experiment, all goats had ad libitum access to feed and water without antibiotics. The goats were divided into three groups, namely the control group (6 animals), the single group (24 animals), and the combined group (24 animals). The control group was fed without medication. In the single group, FF (Zhonglongshenli Animal Pharmaceutical Co., Ltd. Hefei, China, specification: 10 mL: 1 g) was injected into the neck muscles at 48 h intervals, twice in total. In the combined group, FF was injected into the neck muscles at 48 h intervals, twice in total, and DOX-hyclate (Zhonglongshenli Animal Pharmaceutical Co., Ltd. Hefei, China, specification: 10 mL: 1 g) was injected into the neck muscles, once a day for 3 days. The volume of the treatment solution was calculated individually for each goat to provide a dose equivalent to 20 mg FF/kg bw and 10 mg DOX/kg bw.\nGoats of the single group (treated with FF) and goats of the combined group (treated with FF and DOX) were euthanized as previously described at 0.5 (n = 4), 1 (n = 4), 3 (n = 4), 7 (n = 4), 14 (n = 4), and 21 days (n = 4) after the last dose of 20 mg FF/kg bw (single group) and after the last dose of 20 mg FF/kg bw plus 10 mg DOX/kg bw (combined group). Goats were immediately exsanguinated, and tissue specimens of liver, kidney and muscle were collected separately. Each of the tissue specimens was carefully weighed and stored frozen at −20°C until assayed for concentrations of FF and FFA.\nThe method of FF and FFA pre-processing in the target tissues was as follows: Tissue samples weighing 1.00 ± 0.01 g were placed in a 10 mL centrifuge tube, then 5 mL 2% ammoniated ethyl acetate was added, and the tube was vortexed, sonicated and centrifuged. The above steps were repeated, and the supernatants were pooled and dried under a stream of nitrogen. The residue was reconstituted in 5% acetic acid in water, vortexed and passed through an MCX solid-phase extraction column (the order of the column was methanol, water, sample, 5% acetic acid water and 8% ammoniated ethyl acetate), then the eluate was dried under nitrogen, re-dissolved in 2 mL of degreased n-hexane, passed through a 0.22 μm filter membrane and subjected to LC-MS/MS (AB SCIEX API5000, USA) analysis.\nAll inter-assay coefficients of variation in each tissue were within 9.93%, the intra-assay coefficients of variation in each tissue were within 11.08%, and the recovery rates in each tissue were between 70.62 and 113.55%. […] For FF and FFA, the LOQ of the analysis was 10 μg/kg, and the LOD of the analysis was 2 μg/kg. The peak times of FFA and FF were 1.80 and 6.05, respectively (Figure 1)."}, "[2]": {"system": "CYP3A24 and its mutants (R105A, R372A, R440A)", "assay": "Protein activity verification of CYP3A24 and its mutants with testosterone", "settings": "TS 1 μmol/L, 60 min", "protocol": "Testosterone (TS) is a specific substrate of CYP3A, which can generate 6β-OHTS under the action of CYP3A ([21]). In order to study the protein activity of CYP3A24 and its mutants, we incubated each protein with TS. The experimental steps were as follows: protein (0.5 mg/mL) and NADPH (1 mmol/L) were added to PBS (pH 7.4) for 10 min at 37°C, then TS (Dr. Ehrenstorfer GmbH, Germany, 1 μmol/L) was added to start the reaction. The total reaction volume was 200 μL. At 60 min after drug addition, 200 μL of ice-cold acetonitrile was added to terminate the reaction. After centrifugation at 12,000 g/min for 15 min, the supernatant was filtered through a 0.22 μm membrane and analyzed by LC-MS/MS (AB SCIEX API5000, USA). For TS and 6β-OHTS, chromatographic separation occurred using a Thermo Scientific Hypersil Gold C18 column (150 × 2.1 mm, 5 μm particles), and analytes were detected on an API5000 mass analyser. Mobile phase A was 0.1% formic acid in water, and mobile phase B was methanol. The flow rate was 0.2 mL/min with a linear gradient under the following conditions: 0–0.10 min 5–85% B, 0.10–4.10 min 85% B, 4.10–8.00 min 85–5% B. The injection volume was set to 10 μL."}, "[3]": {"settings": "goat, 20 mg/kg bw, kidney, read-out: Tissue concentration FF"}, "[4]": {"settings": "goat, 20 mg/kg bw, liver, read-out: Tissue concentration FF"}, "[5]": {"settings": "goat, 20 mg/kg bw, muscle, read-out: Tissue concentration FF"}},
  "note": "Where two headings read alike, the source gives them in different places.",
  "data": [
    {"smiles": "C[C@H]1c2cccc(O)c2C(=O)C2=C(O)[C@]3(O)C(=O)C(C(N)=O)=C(O)[C@@H](N(C)C)[C@@H]3[C@@H](O)[C@@H]21", "note": "[DOX, α-6-deoxy-5-hydroxytetracycline]", "values": [
      {"measurement": "reduction of FFA production on addition of DOX", "setting": "CYP3A24", "value": 17.8, "unit": "%"}
    ]},
    {"smiles": "CS(=O)(=O)c1ccc([C@@H](O)[C@@H](CF)NC(=O)C(Cl)Cl)cc1", "note": "[FF]", "values": [
      {"measurement": "reduction of FF metabolism (FFA production) vs CYP3A24", "setting": "CYP3A24 R440A", "value": 65.8, "unit": "%"},
      {"measurement": "reduction of FF metabolism (FFA production) vs CYP3A24", "setting": "CYP3A24 R372A", "value": 32.9, "unit": "%"},
      {"measurement": "up-regulation of CYP3A24 gene expression compared to control", "setting": "CYP3A24 gene; 1 day after treatment stopped", "value": "about 2.3 fold"},
      {"measurement": "up-regulation of CYP3A24 gene expression compared to control", "setting": "CYP3A24 gene; 3 days after treatment stopped", "value": "~3", "unit": "fold"},
      {"measurement": "concentration at 3 days after last dose", "setting": "[1]; goat (Capra hircus), 20 mg FF/kg bw, liver, 3 days after last dose", "value": "936 ± 148", "unit": "ng/g"},
      {"measurement": "concentration at 7 days after last dose", "setting": "[1]; goat (Capra hircus), 20 mg FF/kg bw, liver, 7 days after last dose", "value": "338 ± 126", "unit": "ng/g"},
      {"measurement": "concentration at 14 days after last dose", "setting": "[1]; goat (Capra hircus), 20 mg FF/kg bw, liver, 14 days after last dose", "value": "179 ± 26.5", "unit": "ng/g"},
      {"measurement": "concentration at 21 days after last dose", "setting": "[1]; goat (Capra hircus), 20 mg FF/kg bw, liver, 21 days after last dose", "value": "44.5 ± 17.6", "unit": "ng/g"},
      {"measurement": "concentration at 0.5 days", "setting": "[1]; [3]", "value": "2260 ± 203", "unit": "ng/g"},
      {"measurement": "concentration at 1 day", "setting": "[1]; [3]", "value": "1770 ± 142", "unit": "ng/g"},
      {"measurement": "concentration at 3 days", "setting": "[1]; goat, 20 mg/kg bw, kidney, 3 days after last dose, read-out: Tissue concentration FF", "value": "843 ± 124", "unit": "ng/g"},
      {"measurement": "concentration at 7 days", "setting": "[1]; goat, 20 mg/kg bw, kidney, 7 days after last dose, read-out: Tissue concentration FF", "value": "327 ± 43.4", "unit": "ng/g"},
      {"measurement": "concentration at 14 days", "setting": "[1]; goat, 20 mg/kg bw, kidney, 14 days after last dose, read-out: Tissue concentration FF", "value": "131 ± 17.1", "unit": "ng/g"},
      {"measurement": "concentration at 21 days", "setting": "[1]; goat, 20 mg/kg bw, kidney, 21 days after last dose, read-out: Tissue concentration FF", "value": "37.5 ± 8.6", "unit": "ng/g"},
      {"measurement": "concentration at 0.5 days", "setting": "[1]; [4]", "value": "2790 ± 257", "unit": "ng/g"},
      {"measurement": "concentration at 1 day", "setting": "[1]; [4]", "value": "2050 ± 310", "unit": "ng/g"},
      {"measurement": "concentration at 0.5 days", "setting": "[1]; [5]", "value": "1760 ± 201", "unit": "ng/g"},
      {"measurement": "concentration at 1 day", "setting": "[1]; [5]", "value": "858 ± 43.2", "unit": "ng/g"},
      {"measurement": "concentration at 3 days", "setting": "[1]; goat, 20 mg/kg bw, muscle, 3 days after last dose, read-out: Tissue concentration FF", "value": "376 ± 58.1", "unit": "ng/g"},
      {"measurement": "concentration at 7 days", "setting": "[1]; goat, 20 mg/kg bw, muscle, 7 days after last dose, read-out: Tissue concentration FF", "value": "162 ± 4.6", "unit": "ng/g"},
      {"measurement": "concentration at 14 days", "setting": "[1]; goat, 20 mg/kg bw, muscle, 14 days after last dose, read-out: Tissue concentration FF", "value": "48.6 ± 7.6", "unit": "ng/g"}
    ]},
    {"smiles": "C[C@]12CC[C@H]3[C@@H](CCC4=CC(=O)CC[C@@]43C)[C@@H]1CC[C@@H]2O", "note": "[TS, Testosterone]", "values": [
      {"measurement": "metabolism of TS into 6β-OHTS", "setting": "[2]", "value": "could metabolize TS"}
    ]}
  ]
}
